Test results reported in ChEMBL document CHEMBL4038270, “Synthesis of heterocyclic ring-fused tricyclic diterpene analogs as novel inhibitors of RANKL-induced osteoclastogenesis and bone resorption” (Eur J Med Chem, 2017).
pIC50: −log10 of the molar value.

Assays:
[1] = Inhibition of RANKL-induced C57BL/6 mouse bone marrow monocytes differentiation into osteoclasts at 2 uM after 6 days in presence of M-CSF by tartrate-resistant acid phosphatase staining based assay relative to control; type: functional; details: C57BL/6, Bone marrow monocyte, 144 h
[2] = Inhibition of RANKL-induced C57BL/6 mouse bone marrow monocytes differentiation into osteoclasts at 10 uM after 6 days in presence of M-CSF by tartrate-resistant acid phosphatase staining based assay relative to control; type: functional; details: C57BL/6, Bone marrow monocyte, 144 h
[3] = Inhibition of RANKL-induced C57BL/6 mouse bone marrow monocytes differentiation into osteoclasts at 0.5 uM after 6 days in presence of M-CSF by tartrate-resistant acid phosphatase staining based assay relative to control; type: functional; details: C57BL/6, Bone marrow monocyte, 144 h
[4] = Inhibition of RANKL-induced C57BL/6 mouse bone marrow monocytes differentiation into osteoclasts at 0.1 uM after 6 days in presence of M-CSF by tartrate-resistant acid phosphatase staining based assay relative to control; type: functional; details: C57BL/6, Bone marrow monocyte, 144 h
[5] = Inhibition of RANKL-induced C57BL/6 mouse bone marrow monocytes differentiation into osteoclasts after 6 days in presence of M-CSF by tartrate-resistant acid phosphatase staining based assay; type: functional, cell-based; details: C57BL/6, Bone marrow monocyte, 144 h
[6] = Inhibition of RANKL-induced C57BL/6 mouse bone marrow macrophage differentiation into osteoclasts in presence of M-CSF by tartrate-resistant acid phosphatase staining based assay; type: functional, cell-based; details: C57BL/6, BMDM
[7] = Potency index, ratio of maslinic acid IC50 to compound IC50 for RANKL-induced C57BL/6 mouse bone marrow monocytes differentiation into osteoclasts; type: functional, Bone marrow monocyte

SMILES	inhibition at 2 µM [1]	inhibition at 10 µM [2]	inhibition at 0.5 µM [3]	inhibition at 0.1 µM [4]	pIC50 [5]	pIC50 [6]	Ratio IC50 [7]
CCOC(=O)c1noc2c1C[C@]1(C)c3cc(OC)ccc3CC[C@H]1C2(C)C	88.6%	100%	49.5%				
COc1cc2c(cc1C(C)=O)CC[C@H]1C(C)(C)c3oc(C)nc3C[C@]21C	100%		64.5%	30.6%			
COc1ccc2c(c1)[C@@]1(C)Cc3cnc(C)nc3C(C)(C)[C@@H]1CC2	76%	98.5%	45.2%				
CCCC(=O)c1cc2c(cc1OC)[C@@]1(C)Cc3nc(C)oc3C(C)(C)[C@@H]1CC2	83.6%		55.6%	30%			
COc1ccc2c(c1)[C@@]1(C)Cc3c([nH]c4ccccc34)C(C)(C)[C@@H]1CC2	74.3%	88.9%	57.6%				
CNC(=O)c1noc2c1C[C@]1(C)c3cc(OC)ccc3CC[C@H]1C2(C)C	52.8%	100%	28.6%				
COc1ccc2c(c1)[C@@]1(C)Cc3nccnc3C(C)(C)[C@@H]1CC2	66.9%	98.2%	34.3%				
COc1ccc2c(c1)[C@@]1(C)Cc3cnoc3C(C)(C)[C@@H]1CC2	15.9%	59.1%	1.5%		5.12		
CNC(=O)c1cc2c(cc1O)[C@@]1(C)Cc3nc(C)oc3C(C)(C)[C@@H]1CC2	96.6%		87.6%	64.1%			
COc1cc2c(cc1NC(C)=O)CC[C@H]1C(C)(C)c3oc(C)nc3C[C@]21C	66.1%		44.1%	26.9%			
COc1ccc2c(c1)[C@@]1(C)Cc3c(C(=O)O)noc3C(C)(C)[C@@H]1CC2	66.8%	77.9%	55.1%				
COc1cc2c(cc1C(N)=O)CC[C@H]1C(C)(C)c3oc(C)nc3C[C@]21C	57%		30.9%	10.2%			
CCCCNC(=O)c1cc2c(cc1OC)[C@@]1(C)Cc3nc(C)oc3C(C)(C)[C@@H]1CC2	88.6%		37.8%	34.5%			
COc1ccc2c(c1)[C@@]1(C)Cc3snnc3C(C)(C)[C@@H]1CC2	76.8%	97.2%	66.7%				
CC1(C)[C@H](O)C(=O)C[C@]2(C)[C@@H]1CC[C@]13CC4C[C@](O)(C1)[C@@H]4C[C@H]32						4.82	
CCCNC(=O)c1cc2c(cc1OC)[C@@]1(C)Cc3nc(C)oc3C(C)(C)[C@@H]1CC2	100%		62.8%	38.1%			
COc1ccc2c(c1)[C@@]1(C)Cc3cncnc3C(C)(C)[C@@H]1CC2	83%	99.5%	51.1%				
CCOC(=O)c1[nH]nc2c1C[C@]1(C)c3cc(OC)ccc3CC[C@H]1C2(C)C	71.7%	93.7%	61.6%				

SMILES	inhibition at 2 µM [1]	inhibition at 10 µM [2]	inhibition at 0.5 µM [3]	inhibition at 0.1 µM [4]	pIC50 [5]	pIC50 [6]	Ratio IC50 [7]
COC(=O)c1noc2c1C[C@]1(C)c3cc(OC)ccc3CC[C@H]1C2(C)C	43.7%	100%	34.8%				
COc1ccc2c(c1)[C@@]1(C)Cc3nc(N)sc3C(C)(C)[C@@H]1CC2	35.8%	98.2%	29.8%				
COc1cc2c(cc1C(=O)N(C)C)CC[C@H]1C(C)(C)c3oc(C)nc3C[C@]21C	89.2%		70.1%	53.1%			
CCCOC(=O)c1noc2c1C[C@]1(C)c3cc(OC)ccc3CC[C@H]1C2(C)C	41.4%	100%	34.8%				
CC1(C)C(=O)CC[C@]2(C)[C@@H]1CC[C@@]13C[C@@H]4[C@@H](C[C@H]12)[C@]4(C(=O)O)C3						5.40	
CC1(C)[C@H](O)CC[C@]2(C)[C@@H]1CC[C@]13CC4C[C@](O)(C1)[C@@H]4C[C@H]32						4.70	
COc1cc2c(cc1N)CC[C@H]1C(C)(C)c3oc(C)nc3C[C@]21C	77.7%		54.8%	27.1%			
CCNC(=O)c1noc2c1C[C@]1(C)c3cc(OC)ccc3CC[C@H]1C2(C)C	42.4%	84.3%	33.6%				
COc1ccc2c(c1)[C@@]1(C)Cc3cnc(N)nc3C(C)(C)[C@@H]1CC2	64.6%	96.2%	38.6%				
COc1ccc2c(c1)[C@@]1(C)Cc3c(n[nH]c3C(=O)O)C(C)(C)[C@@H]1CC2	57.2%	56.1%	43.9%				
COc1cc2c(cc1C(=O)O)CC[C@H]1C(C)(C)c3oc(C)nc3C[C@]21C	67.8%		45.2%	22.6%			
COc1ccc2c(c1)[C@@]1(C)Cc3nc(C)oc3C(C)(C)[C@@H]1CC2	99.2%	100%	75%	42.9%	6.48		2
CC1(C)CC[C@]2(C(=O)O)CC[C@]3(C)C(=CC[C@@H]4[C@@]5(C)C[C@@H](O)[C@H](O)C(C)(C)[C@@H]5CC[C@]43C)[C@@H]2C1 [MASLINIC ACID]	59.7%	76.3%	48.6%		6.20		
CCNC(=O)c1cc2c(cc1OC)[C@@]1(C)Cc3nc(C)oc3C(C)(C)[C@@H]1CC2	98.2%		70%	56.1%			
COc1ccc2c(c1)[C@@]1(C)Cc3c(CO)noc3C(C)(C)[C@@H]1CC2	51.7%	91.4%	43.4%				
COc1cc2c(cc1/C(C)=N/O)CC[C@H]1C(C)(C)c3oc(C)nc3C[C@]21C	70%		42.7%	26.9%			
CCC(=O)c1cc2c(cc1OC)[C@@]1(C)Cc3nc(C)oc3C(C)(C)[C@@H]1CC2	91.3%		64.1%	32.5%			
COc1ccc2c(c1)[C@@]1(C)Cc3c[nH]nc3C(C)(C)[C@@H]1CC2	8.1%	10.1%	4.3%				
